Read-outs that look alike come from different tables or passages of the source. Values belong to the compound of their own block, whether it stands above or below them.
Experiments:
[1] = amide bond, 13-membered ring
[2] = from Cc1cccc(C)c1-c1cc(OC(CN)c2ccc(Br)cc2)nc(NS(=O)(=O)c2cccc(C(=O)O)c2)n1; amide bond; 13-membered ring; FDPP/DIEA; DMF; 36.8 mM; 25.0 °C; 1.0 h
[3] = target: T1, CFTR (Homo sapiens, UniProt P13569); assay: standard Ussing Chamber Assay for CFTR potentiator activity; assay type: cell-based
Target sequence in this assay (P13569 whole entry, species assumed): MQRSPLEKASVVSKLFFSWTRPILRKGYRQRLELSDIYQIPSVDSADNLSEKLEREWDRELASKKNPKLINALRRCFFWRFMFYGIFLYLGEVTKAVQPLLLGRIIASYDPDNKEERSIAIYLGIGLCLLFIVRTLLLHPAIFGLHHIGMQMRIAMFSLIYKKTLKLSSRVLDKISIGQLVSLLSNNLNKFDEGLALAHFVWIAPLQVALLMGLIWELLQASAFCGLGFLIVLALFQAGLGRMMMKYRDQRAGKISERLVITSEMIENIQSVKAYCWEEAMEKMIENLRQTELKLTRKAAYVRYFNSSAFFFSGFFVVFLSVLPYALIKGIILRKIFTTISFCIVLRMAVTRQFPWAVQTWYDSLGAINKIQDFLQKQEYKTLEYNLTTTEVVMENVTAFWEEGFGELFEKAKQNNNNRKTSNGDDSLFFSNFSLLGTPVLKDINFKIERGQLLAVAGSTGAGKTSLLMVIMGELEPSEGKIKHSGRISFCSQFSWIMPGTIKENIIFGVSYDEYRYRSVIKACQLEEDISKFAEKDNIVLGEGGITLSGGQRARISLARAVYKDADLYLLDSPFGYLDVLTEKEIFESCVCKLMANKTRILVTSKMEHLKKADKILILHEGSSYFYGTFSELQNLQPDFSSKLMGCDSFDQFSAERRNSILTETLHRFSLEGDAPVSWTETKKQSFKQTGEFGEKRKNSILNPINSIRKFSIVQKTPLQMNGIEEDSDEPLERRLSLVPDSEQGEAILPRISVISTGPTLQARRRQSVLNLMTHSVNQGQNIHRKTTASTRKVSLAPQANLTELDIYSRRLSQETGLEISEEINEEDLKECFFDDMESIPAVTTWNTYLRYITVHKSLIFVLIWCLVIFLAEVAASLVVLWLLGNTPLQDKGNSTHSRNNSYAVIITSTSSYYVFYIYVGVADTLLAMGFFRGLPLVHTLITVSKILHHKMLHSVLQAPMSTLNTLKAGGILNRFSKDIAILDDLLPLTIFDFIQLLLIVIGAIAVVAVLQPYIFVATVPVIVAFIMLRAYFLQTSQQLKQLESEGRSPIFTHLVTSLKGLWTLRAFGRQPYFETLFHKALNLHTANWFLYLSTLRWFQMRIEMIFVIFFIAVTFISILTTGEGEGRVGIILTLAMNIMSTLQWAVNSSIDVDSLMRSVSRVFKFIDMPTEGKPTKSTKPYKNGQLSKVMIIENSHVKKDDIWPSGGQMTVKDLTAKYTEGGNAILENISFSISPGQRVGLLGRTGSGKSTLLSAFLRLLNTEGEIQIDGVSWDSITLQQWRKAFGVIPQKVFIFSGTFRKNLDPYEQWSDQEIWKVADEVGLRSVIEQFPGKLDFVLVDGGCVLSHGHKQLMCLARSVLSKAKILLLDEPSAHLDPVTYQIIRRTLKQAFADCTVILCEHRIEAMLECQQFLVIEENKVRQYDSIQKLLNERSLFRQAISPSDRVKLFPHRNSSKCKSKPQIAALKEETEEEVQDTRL

[4] = target: T2, F508del (Homo sapiens, UniProt P13569, DEL508-508); assay: 3T3 assay: membrane potential optical assay for F508del correction in NIH 3T3 cells; assay type: cell-based; conditions: Table 8
T2 construct: expressed in transfected cells
How it was run: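 NIH 3T3 mouse fibroblasts stably expressing F508del were incubated with corrector compounds at a range of concentrations for 16–24 h at 37° C, then loaded with a redistribution voltage-sensing dye. A single addition of forskolin under a chloride gradient (gluconate-substituted bath, pH 7.4) gave the membrane-potential response, read by FLIPR.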

[5] = target: T1, CFTR; assay: Membrane Potential Dye, Enteroid Assay A; assay type: cell-based; conditions: for EC50: read-out: Ent. A EC50
How it was run: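 Enteroid cells were loaded with methyl oxonol membrane potential dye (plus CaCCinh-A01 and Chicago Sky Blue) for 25 min at room temperature. Chloride transport was started by switching to chloride-free gluconate stimulation solution, with fluorescence read for 15 min. Activity was expressed as % of a triple-combination CFTR modulator control (3 μM, 3 μM, 300 nM acute).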
Target sequence in this assay (P13569 with tags, fused parts or gaps DEL508-508): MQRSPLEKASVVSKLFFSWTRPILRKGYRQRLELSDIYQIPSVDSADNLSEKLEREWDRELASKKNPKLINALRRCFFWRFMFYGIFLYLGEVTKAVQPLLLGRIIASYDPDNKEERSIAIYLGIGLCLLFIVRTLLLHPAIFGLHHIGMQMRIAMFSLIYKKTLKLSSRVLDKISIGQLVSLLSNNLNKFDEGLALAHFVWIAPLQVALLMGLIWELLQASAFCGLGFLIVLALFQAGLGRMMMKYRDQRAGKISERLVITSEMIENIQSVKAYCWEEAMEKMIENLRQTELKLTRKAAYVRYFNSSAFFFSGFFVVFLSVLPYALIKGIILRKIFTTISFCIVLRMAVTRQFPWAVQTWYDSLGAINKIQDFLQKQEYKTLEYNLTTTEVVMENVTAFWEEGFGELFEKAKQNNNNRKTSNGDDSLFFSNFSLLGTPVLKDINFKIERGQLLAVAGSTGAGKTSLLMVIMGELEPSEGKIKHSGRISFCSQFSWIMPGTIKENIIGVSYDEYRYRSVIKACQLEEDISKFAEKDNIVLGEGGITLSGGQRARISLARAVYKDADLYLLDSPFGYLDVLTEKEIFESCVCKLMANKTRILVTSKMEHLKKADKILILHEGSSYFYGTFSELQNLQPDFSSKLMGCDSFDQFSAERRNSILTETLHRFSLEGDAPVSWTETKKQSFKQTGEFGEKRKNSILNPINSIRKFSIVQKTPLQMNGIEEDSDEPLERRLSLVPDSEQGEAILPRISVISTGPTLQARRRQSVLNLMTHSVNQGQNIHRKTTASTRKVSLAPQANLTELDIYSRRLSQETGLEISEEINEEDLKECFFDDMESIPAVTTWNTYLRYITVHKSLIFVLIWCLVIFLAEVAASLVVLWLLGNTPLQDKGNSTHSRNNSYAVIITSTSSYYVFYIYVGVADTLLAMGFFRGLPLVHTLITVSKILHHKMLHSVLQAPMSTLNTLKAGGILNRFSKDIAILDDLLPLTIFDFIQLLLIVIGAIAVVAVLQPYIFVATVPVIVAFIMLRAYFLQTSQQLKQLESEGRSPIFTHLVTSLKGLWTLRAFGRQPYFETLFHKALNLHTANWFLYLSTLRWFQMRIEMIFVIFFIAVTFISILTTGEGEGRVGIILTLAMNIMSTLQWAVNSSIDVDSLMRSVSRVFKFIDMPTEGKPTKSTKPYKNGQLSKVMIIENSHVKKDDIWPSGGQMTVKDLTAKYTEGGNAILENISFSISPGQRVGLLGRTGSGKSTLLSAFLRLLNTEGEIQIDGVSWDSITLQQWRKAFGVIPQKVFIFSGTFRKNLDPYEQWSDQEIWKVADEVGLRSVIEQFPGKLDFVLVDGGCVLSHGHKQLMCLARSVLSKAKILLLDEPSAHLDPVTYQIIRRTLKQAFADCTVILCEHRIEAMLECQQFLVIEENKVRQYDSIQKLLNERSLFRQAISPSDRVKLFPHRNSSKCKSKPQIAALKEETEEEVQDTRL

[6] = target: T1, CFTR; assay: Membrane Potential Dye, Enteroid Assay B; assay type: cell-based; conditions: for EC50: read-out: Ent. B EC50
How it was run: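 Enteroid cells loaded 25 min at room temperature with 20 μM methyl oxonol plus 30 μM CaCCinh-A01 and 30 μM Chicago Sky Blue, then switched to chloride-free gluconate buffer. Chloride transport was started by chloride-free stimulation solution, with fluorescence read for 15 min.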
Target sequence in this assay (P13569 with tags, fused parts or gaps DEL508-508): as above

T2 sequence (P13569 with tags, fused parts or gaps DEL508-508): as above

SMILES: Cc1cccc(C)c1-c1cc2nc(n1)NS(=O)(=O)c1cccc(c1)C(=O)NCC(c1ccc(Br)cc1)O2 (stereo not drawn)
ring closure, isolated yield ([1]; from Cc1cccc(C)c1-c1cc(OC(CN)c2ccc(Br)cc2)nc(NS(=O)(=O)c2cccc(C(=O)O)c2)n1, HATU/DIEA, DMF, 26.4 mM, 25.0 °C, 2.0 h): 25%
ring closure, yield after HPLC [2]: 52%

CFTR modulatory activity [3]: confirmed
SMILES: C[C@@H]1CCCCC[C@](O)(C(F)(F)F)C2=NN=C(O2)c2nc(c(C(F)(F)F)cc2N)O1 [(6R,12R)-17-amino-12-methyl-6,15-bis(trifluoromethyl)-13,19-dioxa-3,4,18-triazatricyclo[12.3.1.12,5]nonadeca-1(18),2,4,14,16-pentaen-6-ol]

SMILES: Cc1cccc(C)c1-c1cc2nc(n1)NS(=O)(=O)c1cccc(c1)C(=O)N[C@H](C)[C@@H](c1ccc(C(C)(C)C)cc1)O2 [Compound 38, (10R,11R)-10-(4-tert-Butylphenyl)-6-(2,6-dimethylphenyl)-11-methyl-9-oxa-2λ^6-thia-3,5,12,19-tetraazatricyclo[12.3.1.14,8]nonadeca-1(18),4,6,8(19),14,16-hexaene-2,2,13-trione]
ring closure, isolated yield ([1]; from Cc1cccc(C)c1-c1cc(O[C@H](c2ccc(C(C)(C)C)cc2)[C@@H](C)N)nc(NS(=O)(=O)c2cccc(C(=O)O)c2)n1, HATU/NaOtBu, DMF/MeTHF, 52.6 mM, 25.0 °C, 16.0 h, 2 steps): 39%
Emax ([4]; NIH3T3, read-out: 3T3 Max Activity): > 60%
EC50 [4]: < 1000 nM
Ent. A Max Activity ([5]; Table 8): +++ (+++ is >60%)
EC50 ([5]; Table 8): < 1000 nM
Ent. B Max Activity ([6]; Table 8): +++ (+++ is >60%)
EC50 ([6]; Table 8): < 1000 nM

Ent. A Max Activity ([5]; Table 9): +++ (+++ is >60%)
EC50 ([5]; Table 9): 1000 to 3000 nM
Ent. B Max Activity ([6]; Table 9): +++ (+++ is >60%)
EC50 ([6]; Table 9): 1000 to 3000 nM
SMILES: Cc1cccc(C)c1-c1cc2nc(n1)NS(=O)(=O)c1cccc(c1)C(=O)N[C@@H]1CN(C(=O)OC(C)(C)C)C[C@H]1O2 [Compound 57, tert-Butyl (3R,7R)-19-(2,6-dimethylphenyl)-9,15,15-trioxo-2-oxa-15λ^6-thia-5,8,16,18,21-pentaazatetracyclo[15.3.1.110,14.03,7]docosa-1(20),10(22),11,13,17(21),18-hexaene-5-carboxylate]
ring closure, isolated yield ([1]; from Cc1cccc(C)c1-c1cc(O[C@@H]2CN(C(=O)OC(C)(C)C)C[C@H]2N)nc(NS(=O)(=O)c2cccc(C(=O)O)c2)n1, HATU/DIEA, DMF, 17.1 mM, 72.0 h): 18%
